US11434194B2, “Amorphous form of vilanterol trifenatate and processes for the preparation thereof” (Hovione Scientia Limited, priority 2017, dated 2022)

Key:
Type in all cases: physicochemical
[1] = Visual solubility in differing solvents (European Pharmacopeia 6.0 section 5.11)
Protocol: Visual solubility of the amorphous form of the invention in differing solvents was assessed according to the procedure described in the European Pharmacopeia 6.0 section 5.11. p. 659 (see corresponding SI dissolution ranges in Table 2), and compared with that for Form 1. The following method was used: Dissolving procedure: the compound was shaken vigorously for 1 min and placed in a constant temperature device for 15 min at 25.0±0.5° C. If the compound was not completely dissolved, the shaking was repeated for 1 min and the tube placed in a constant temperature device for 15 min. Method: 50 mg of compound was weighed in a stoppered tube, 0.05 mL of the solvent added and the Dissolving Procedure (see above) followed. If the compound was completely dissolved, it was defined very soluble. If the compound was not completely dissolved, a further 0.45 mL of the solvent was added and the Dissolving Procedure (see above) followed. […] If the compound was still not completely dissolved, still further 1.0 mL of the solvent was added and the Dissolving Procedure (see above) followed. If the compound was completely dissolved, it was defined as soluble. If the compound was still not completely dissolved, another 3.5 mL of the solvent was added and the Dissolving Procedure (see above) followed. […] If the compound was still not completely dissolved, the compound was slightly soluble or very slightly soluble. In this case, the suspension was heated up to the boiling point (max 80° C.) under stirring to verify the solubility at high temperature. The hot solution was afterwards cooled to room temperature to observe whether the compound precipitates. If the compound at room, temperature was completely dissolved, it is soluble at high temperature. [table]

[2] = Dynamic vapour sorption (DVS) analysis / kinetic moisture sorption, hygroscopicity; settings: for Change In Mass (%) Desorption / Change In Mass (%) Hysteresis / Change In Mass (%) Sorption: 25° C.
Protocol: The values in the table are weight % variations that result from the use of the European Pharmacopoeia equation provided below. The hygroscopicity value is indicated from the sorption row at 80% RH of cycle 1.
The sample was subjected to DVS measuring using SMS-DVS intrinsic. The kinetic moisture sorption measurement was performed at 25° C. and in a RH % range described in the following: • From 40% RH to 90% RH • Form 90% RH to 0% RH • From 0% RH to 90% RH • From 90% RH to 0% RH
The sample was analyzed by XRPD after the analysis.
The hygroscopicity was calculated using the following equation: % Weight Change=[(W2−W1)/W1]*100, (1) wherein W1 is the weight of the sample at the start of the experiment (25° C. and 40% RH), and W2 is the weight of the sample at 25° C. and 80% RH in the first absorption cycle.

[3] = Solid-state storage stability (XRPD pattern, HPLC chromatogram)
Protocol: Such conditions reflect conditions similar to those in which the current medicaments (mentioned above) may be stored.
HPLC analysis was conducted using a waters system under the following conditions:
X-ray powder patterns were recorded using the PANalytical X'Pert PRO X-ray diffraction system equipped with a PW3373/00 Cu LFF DK184511 X-Ray tube and a X'Celerator RTMS (Real Time Multiple Strip) detector under the following conditions: […]

OCc1cc([C@@H](O)CNCCCCCCOCCOCc2c(Cl)cccc2Cl)ccc1O [Form I, 4-((1R)-2-((6-(2-((2,6-Dichlorophenyl)methoxy)ethoxy)-hexyl)amino)-1-hydroxyethyl)-2-(hydroxymethyl)phenol triphenylacetate]
visual solubility ([1]; 1,4-dioxane at 25° C.): freely soluble | visual solubility ([1]; THF at 25° C.): freely soluble | visual solubility ([1]; ethanol at 25° C.): sparingly soluble | visual solubility ([1]; methanol at 25° C.): soluble

OCc1cc([C@@H](O)CNCCCCCCOCCOCc2c(Cl)cccc2Cl)ccc1O [amorphous vilanterol trifenatate, 4-((1R)-2-((6-(2-((2,6-Dichlorophenyl)methoxy)ethoxy)-hexyl)amino)-1-hydroxyethyl)-2-(hydroxymethyl)phenol triphenylacetate]
mass increase (dynamic vapour sorption analysis; hygroscopicity value) ([2]; 80% RH at 25° C., sorption, cycle 1): 1.34% | hygroscopicity classification (European Pharmacopeia version 7) ([2]; % weight change from 40% RH to 80% RH at 25° C., first absorption cycle): slightly hygroscopic | Change In Mass (%) Desorption ([2]; Cycle 1, target RH 0.0%): 1.186% | Change In Mass (%) Desorption ([2]; Cycle 1, target RH 10.0%): 1.224% | Change In Mass (%) Desorption ([2]; Cycle 1, target RH 20.0%): 1.257% | Change In Mass (%) Desorption ([2]; Cycle 1, target RH 30.0%): 1.298% | Change In Mass (%) Desorption ([2]; Cycle 1, target RH 40.0%): 1.333% | Change In Mass (%) Hysteresis ([2]; Cycle 1, target RH 40.0%): 1.332% | Change In Mass (%) Sorption ([2]; Cycle 1, target RH 40.0%): 0.001% | Change In Mass (%) Desorption ([2]; Cycle 1, target RH 50.0%): 1.368% | Change In Mass (%) Hysteresis ([2]; Cycle 1, target RH 50.0%): 1.101% | Change In Mass (%) Sorption ([2]; Cycle 1, target RH 50.0%): 0.267% | Change In Mass (%) Desorption ([2]; Cycle 1, target RH 60.0%): 1.401% | Change In Mass (%) Hysteresis ([2]; Cycle 1, target RH 60.0%): 0.784% | Change In Mass (%) Sorption ([2]; Cycle 1, target RH 60.0%): 0.618% | Change In Mass (%) Desorption ([2]; Cycle 1, target RH 70.0%): 1.437% | Change In Mass (%) Hysteresis ([2]; Cycle 1, target RH 70.0%): 0.423% | Change In Mass (%) Sorption ([2]; Cycle 1, target RH 70.0%): 1.013% | Change In Mass (%) Desorption ([2]; Cycle 1, target RH 80.0%): 1.474% | Change In Mass (%) Hysteresis ([2]; Cycle 1, target RH 80.0%): 0.131% | Change In Mass (%) Sorption ([2]; Cycle 1, target RH 80.0%): 1.344% | Change In Mass (%) Desorption ([2]; Cycle 1, target RH 90.0%): 1.516% | Change In Mass (%) Sorption ([2]; Cycle 1, target RH 90.0%): 1.516% | Change In Mass (%) Desorption ([2]; Cycle 2, target RH 0.0%): 1.063% | Change In Mass (%) Sorption ([2]; Cycle 2, target RH 0.0%): 1.186% | Change In Mass (%) Desorption ([2]; Cycle 2, target RH 10.0%): 1.186% | Change In Mass (%) Hysteresis ([2]; Cycle 2, target RH 10.0%): 0.006% | Change In Mass (%) Sorption ([2]; Cycle 2, target RH 10.0%): 1.180% | Change In Mass (%) Desorption ([2]; Cycle 2, target RH 20.0%): 1.214% | Change In Mass (%) Hysteresis ([2]; Cycle 2, target RH 20.0%): 0.035% | Change In Mass (%) Sorption ([2]; Cycle 2, target RH 20.0%): 1.179% | Change In Mass (%) Desorption ([2]; Cycle 2, target RH 30.0%): 1.243% | Change In Mass (%) Hysteresis ([2]; Cycle 2, target RH 30.0%): 0.061% | Change In Mass (%) Sorption ([2]; Cycle 2, target RH 30.0%): 1.182% | Change In Mass (%) Desorption ([2]; Cycle 2, target RH 40.0%): 1.269% | Change In Mass (%) Hysteresis ([2]; Cycle 2, target RH 40.0%): 0.079% | Change In Mass (%) Sorption ([2]; Cycle 2, target RH 40.0%): 1.189% | Change In Mass (%) Desorption ([2]; Cycle 2, target RH 50.0%): 1.294% | Change In Mass (%) Hysteresis ([2]; Cycle 2, target RH 50.0%): 0.090% | Change In Mass (%) Sorption ([2]; Cycle 2, target RH 50.0%): 1.205% | Change In Mass (%) Desorption ([2]; Cycle 2, target RH 60.0%): 1.320% | Change In Mass (%) Hysteresis ([2]; Cycle 2, target RH 60.0%): 0.093% | Change In Mass (%) Sorption ([2]; Cycle 2, target RH 60.0%): 1.228% | Change In Mass (%) Desorption ([2]; Cycle 2, target RH 70.0%): 1.345% | Change In Mass (%) Hysteresis ([2]; Cycle 2, target RH 70.0%): 0.084% | Change In Mass (%) Sorption ([2]; Cycle 2, target RH 70.0%): 1.262% | Change In Mass (%) Desorption ([2]; Cycle 2, target RH 80.0%): 1.369% | Change In Mass (%) Hysteresis ([2]; Cycle 2, target RH 80.0%): 0.061% | Change In Mass (%) Sorption ([2]; Cycle 2, target RH 80.0%): 1.308% | Change In Mass (%) Desorption ([2]; Cycle 2, target RH 90.0%): 1.393% | Change In Mass (%) Sorption ([2]; Cycle 2, target RH 90.0%): 1.393% | visual solubility ([1]; 1,4-dioxane at 25° C., listed as amorphous of vilanterol trifenatate): soluble | visual solubility ([1]; ethanol at 50° C.): sparingly soluble | XRPD patterns before and after exposure ([3]; 60% RH at 25° C. (7 days)): unchanged | time stable on storage (XRPD pattern and HPLC chromatograms remained the same) ([3]; room temperature): at least 5 months
